Results as given in BindingDB's records for doi:10.1021/jm00007a020 (Eastern Michigan University, 1995).
Square brackets hold non-standard residues; d marks the D form. Peptide text beside a SMILES is read from it. Ala(4-thiazolyl) = N[C@@H](Cc1cscn1)C(=O)O; 2Pal = N[C@@H](Cc1ccccn1)C(=O)O; 3Pal = N[C@@H](Cc1cccnc1)C(=O)O; 2Thi = N[C@@H](Cc1cccs1)C(=O)O

Test: Inhibition of [3H]- DPDPE binding to delta opioid receptor of guinea pig brain

Molecule | Ki [µM]
Cc1ccc(C[C@H](NC(=O)[C@H](C)NC(=O)[C@@H](N)Cc2ccc(O)cc2)C(=O)N[C@@H](CC(=O)O)C(=O)N[C@H](C(=O)N[C@H](C(=O)NCC(N)=O)C(C)C)C(C)C)cc1 [(S)-3-((S)-2-{(S)-2-[(S)-2-Amino-3-(4-hydroxy-phenyl)-propionylamino]-propionylamino}-3-p-tolyl-propionylamino)-N-{(S)-1-[(S)-1-(carbamoylmethyl-carbamoyl)-2-methyl-propylcarbamoyl]-2-methyl-propyl}-succinamic acid] | 2.65
CC(C)[C@H](NC(=O)[C@H](CC(=O)O)NC(=O)[C@H](Cc1c(F)c(F)c(F)c(F)c1F)NC(=O)[C@H](C)NC(=O)[C@@H](N)Cc1ccc(O)cc1)C(=O)N[C@H](C(=O)NCC(N)=O)C(C)C [(S)-3-((S)-2-{(S)-2-[(S)-2-Amino-3-(4-hydroxy-phenyl)-propionylamino]-propionylamino}-3-pentafluorophenyl-propionylamino)-N-{(S)-1-[(S)-1-(carbamoylmethyl-carbamoyl)-2-methyl-propylcarbamoyl]-2-methyl-propyl}-succinamic acid] | 0.135
Cc1c(C)c(C)c(C[C@H](NC(=O)[C@H](C)NC(=O)[C@@H](N)Cc2ccc(O)cc2)C(=O)N[C@@H](CC(=O)O)C(=O)N[C@H](C(=O)N[C@H](C(=O)NCC(N)=O)C(C)C)C(C)C)c(C)c1C [(S)-3-((S)-2-{(S)-2-[(S)-2-Amino-3-(4-hydroxy-phenyl)-propionylamino]-propionylamino}-3-pentamethylphenyl-propionylamino)-N-{(S)-1-[(S)-1-(carbamoylmethyl-carbamoyl)-2-methyl-propylcarbamoyl]-2-methyl-propyl}-succinamic acid] | 10
CC(C)[C@H](NC(=O)[C@H](CC(=O)O)NC(=O)[C@H](Cc1ccccn1)NC(=O)[C@H](C)NC(=O)[C@@H](N)Cc1ccc(O)cc1)C(=O)N[C@H](C(=O)NCC(N)=O)C(C)C [(S)-3-((S)-2-{(S)-2-[(S)-2-Amino-3-(4-hydroxy-phenyl)-propionylamino]-propionylamino}-3-pyridin-2-yl-propionylamino)-N-{(S)-1-[(S)-1-(carbamoylmethyl-carbamoyl)-2-methyl-propylcarbamoyl]-2-methyl-propyl}-succinamic acid] (H-YA[2Pal]DVVG-NH2) | 0.062
CC(C)[C@H](NC(=O)[C@H](CC(=O)O)NC(=O)[C@H](Cc1cccnc1)NC(=O)[C@H](C)NC(=O)[C@@H](N)Cc1ccc(O)cc1)C(=O)N[C@H](C(=O)NCC(N)=O)C(C)C [(S)-3-((S)-2-{(S)-2-[(S)-2-Amino-3-(4-hydroxy-phenyl)-propionylamino]-propionylamino}-3-pyridin-3-yl-propionylamino)-N-{(S)-1-[(S)-1-(carbamoylmethyl-carbamoyl)-2-methyl-propylcarbamoyl]-2-methyl-propyl}-succinamic acid] (H-YA[3Pal]DVVG-NH2) | 0.05
CC(C)[C@H](NC(=O)[C@H](CC(=O)O)NC(=O)[C@H](Cc1cscn1)NC(=O)[C@H](C)NC(=O)[C@@H](N)Cc1ccc(O)cc1)C(=O)N[C@H](C(=O)NCC(N)=O)C(C)C [(S)-3-((S)-2-{(S)-2-[(S)-2-Amino-3-(4-hydroxy-phenyl)-propionylamino]-propionylamino}-3-thiazol-4-yl-propionylamino)-N-{(S)-1-[(S)-1-(carbamoylmethyl-carbamoyl)-2-methyl-propylcarbamoyl]-2-methyl-propyl}-succinamic acid] (H-YA[Ala(4-thiazolyl)]DVVG-NH2) | 0.04
CC(C)[C@H](NC(=O)[C@H](CC(=O)O)NC(=O)[C@H](Cc1cccs1)NC(=O)[C@H](C)NC(=O)[C@@H](N)Cc1ccc(O)cc1)C(=O)N[C@H](C(=O)NCC(N)=O)C(C)C [(S)-3-((S)-2-{(S)-2-[(S)-2-Amino-3-(4-hydroxy-phenyl)-propionylamino]-propionylamino}-3-thiophen-2-yl-propionylamino)-N-{(S)-1-[(S)-1-(carbamoylmethyl-carbamoyl)-2-methyl-propylcarbamoyl]-2-methyl-propyl}-succinamic acid] (H-YA[2Thi]DVVG-NH2) | 0.0014
CC(C)[C@H](NC(=O)[C@H](CC(=O)O)NC(=O)[C@H](Cc1cccc(F)c1)NC(=O)[C@H](C)NC(=O)[C@@H](N)Cc1ccc(O)cc1)C(=O)N[C@H](C(=O)NCC(N)=O)C(C)C [(S)-3-[(S)-2-{(S)-2-[(S)-2-Amino-3-(4-hydroxy-phenyl)-propionylamino]-propionylamino}-3-(3-fluoro-phenyl)-propionylamino]-N-{(S)-1-[(S)-1-(carbamoylmethyl-carbamoyl)-2-methyl-propylcarbamoyl]-2-methyl-propyl}-succinamic acid] | 0.0736
CC(C)[C@H](NC(=O)[C@H](CC(=O)O)NC(=O)[C@H](Cc1ccc(F)cc1)NC(=O)[C@H](C)NC(=O)[C@@H](N)Cc1ccc(O)cc1)C(=O)N[C@H](C(=O)NCC(N)=O)C(C)C [(S)-3-[(S)-2-{(S)-2-[(S)-2-Amino-3-(4-hydroxy-phenyl)-propionylamino]-propionylamino}-3-(4-fluoro-phenyl)-propionylamino]-N-{(S)-1-[(S)-1-(carbamoylmethyl-carbamoyl)-2-methyl-propylcarbamoyl]-2-methyl-propyl}-succinamic acid] | 0.703
H-YAHDVVG-NH2 [(S)-3-[(S)-2-{(S)-2-[(S)-2-Amino-3-(4-hydroxy-phenyl)-propionylamino]-propionylamino}-3-(3H-imidazol-4-yl)-propionylamino]-N-{(S)-1-[(S)-1-(carbamoylmethyl-carbamoyl)-2-methyl-propylcarbamoyl]-2-methyl-propyl}-succinamic acid] | 0.317
